Assay [1] addresses T1, Xanthine dehydrogenase/oxidase (Homo sapiens, UniProt P47989). The assay is described as follows: Inhibition of xanthine oxidase.
The target of assay [2] is T1, Xanthine dehydrogenase/oxidase. The assay is described as follows: Inhibition of xanthine oxidase by competitive Lineweaver-Burke plot.
Assay [3] has the same target. The assay is described as follows: Inhibition of xanthine oxidase by noncompetitive Lineweaver-Burke plot. As to conditions: read-out: Kinact.

Some results are limits rather than exact numbers.

T1 sequence (P47989 whole entry): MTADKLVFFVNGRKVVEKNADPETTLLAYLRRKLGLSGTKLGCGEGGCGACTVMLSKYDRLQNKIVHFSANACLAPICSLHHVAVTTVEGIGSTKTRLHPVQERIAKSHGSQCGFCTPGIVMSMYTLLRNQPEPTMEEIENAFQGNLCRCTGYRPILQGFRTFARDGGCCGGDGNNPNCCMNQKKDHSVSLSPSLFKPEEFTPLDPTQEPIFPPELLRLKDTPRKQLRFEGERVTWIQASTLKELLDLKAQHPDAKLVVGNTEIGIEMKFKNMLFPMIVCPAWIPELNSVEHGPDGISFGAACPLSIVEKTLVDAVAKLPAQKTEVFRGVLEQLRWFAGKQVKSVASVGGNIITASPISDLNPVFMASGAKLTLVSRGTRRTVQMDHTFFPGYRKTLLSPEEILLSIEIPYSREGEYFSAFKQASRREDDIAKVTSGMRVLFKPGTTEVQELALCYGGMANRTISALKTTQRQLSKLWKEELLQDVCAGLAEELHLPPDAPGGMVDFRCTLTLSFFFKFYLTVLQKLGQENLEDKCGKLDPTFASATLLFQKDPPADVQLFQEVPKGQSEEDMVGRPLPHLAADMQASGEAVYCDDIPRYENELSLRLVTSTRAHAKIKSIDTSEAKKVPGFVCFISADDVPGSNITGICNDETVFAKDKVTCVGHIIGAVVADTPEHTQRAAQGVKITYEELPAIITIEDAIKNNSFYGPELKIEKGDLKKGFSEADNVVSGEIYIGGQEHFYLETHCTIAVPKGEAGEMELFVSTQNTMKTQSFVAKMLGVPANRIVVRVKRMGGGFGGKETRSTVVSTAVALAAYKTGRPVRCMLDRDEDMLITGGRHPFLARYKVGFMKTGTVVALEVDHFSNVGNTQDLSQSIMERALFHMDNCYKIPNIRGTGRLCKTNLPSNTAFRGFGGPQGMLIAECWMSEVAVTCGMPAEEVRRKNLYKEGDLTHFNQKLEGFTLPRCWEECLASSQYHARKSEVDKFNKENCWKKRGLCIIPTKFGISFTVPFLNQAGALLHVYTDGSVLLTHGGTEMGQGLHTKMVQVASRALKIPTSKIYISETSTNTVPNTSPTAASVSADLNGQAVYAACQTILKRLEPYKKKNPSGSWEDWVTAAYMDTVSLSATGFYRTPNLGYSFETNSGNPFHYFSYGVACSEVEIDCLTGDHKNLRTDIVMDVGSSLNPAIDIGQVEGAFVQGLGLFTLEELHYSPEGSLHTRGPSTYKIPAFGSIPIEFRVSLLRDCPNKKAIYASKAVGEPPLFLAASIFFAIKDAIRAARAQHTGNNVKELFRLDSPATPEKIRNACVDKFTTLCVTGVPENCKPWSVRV

Regarding `O=C(/C=C/c1ccc(O)cc1)O[C@@H]1[C@@H](Oc2ccc(-c3cc(=O)c4c(O)cc(O)cc4o3)cc2)O[C@@H](CO)[C@H](O)[C@H]1O`, inhibition in assay [1] was half-maximal at 24 µM (IC50). The Ki in assay [2] turned out to be 14.3 µM; in assay [3], 93.7 µM.

Consider `O=C(/C=C/c1ccc(O)cc1)OC[C@@H]1O[C@H](Oc2ccc(-c3cc(=O)c4c(O)cc(O)cc4o3)cc2)[C@@H](OC(=O)/C=C/c2ccc(O)cc2)[C@H](O)[C@H]1O`, for which the IC50 in assay [1] is more than 100 µM. The molecule `O=C(/C=C/c1ccc(O)cc1)OC[C@@H]1O[C@H](Oc2ccc(-c3cc(=O)c4c(O)cc(O)cc4o3)cc2)[C@@H](O)[C@H](O)[C@H]1O` showed an IC50 in assay [1] of more than 100 µM.

(Values after ChEMBL document CHEMBL1142609, “An apigenin-derived xanthine oxidase inhibitor from Palhinhaea cernua” (J Nat Prod, 2006).)
